# Laboratory results published in patent publication US8841233B2, “Herbicidal compositions comprising 4-amino-3-chloro-5-fluoro-6-(4-chloro-2-fluoro-3-methoxyphenyl) pyridine-2-carboxylic acid or a derivative thereof and 4-hydroxyphenyl-pyruvate dioxygenase (HPPD) inhibitors” (Dow Agrosciences LLC, priority 2012, dated 2014).
# What was measured:
# Assay in all cases: Pre-emergence soil-applied weed control, greenhouse (Example III)
# XANST = format: in vivo, Xanthium strumarium L.; conditions: 35 gai/ha
# Excerpt: (§1) Evaluation of Pre-emergence Soil-Applied Herbicidal Mixtures for Weed Control
# (§2) Seeds or nutlets of the desired test plant species were planted in a soil matrix prepared by mixing a loam soil (32 percent silt, 23 percent clay, and 45 percent sand, with a pH of about 6.5 and an organic matter content of about 1.9 percent) and calcareous grit in an 80 to 20 ratio. The soil matrix was contained in plastic pots with a volume of 1 quart and a surface area of 83.6 square centimeters (cm^2).
# (§3) Treatments consisted of the benzyl ester of 4-amino-3-chloro-5-fluoro-6-(4-chloro-2-fluoro-3-methoxy-phenyl)pyridine-2-carboxylic acid (compound A) formulated as an SC (suspension concentrate) and various herbicidal components alone and in combination. Forms of compound A were applied on an acid equivalent basis.
# (§4) Other herbicidal components were applied on an acid equivalent or active ingredient basis and included the 4-hydroxyphenyl pyruvate dioxygenase (HPPD)-inhibiting herbicide, isoxaflutole, formulated as Balance Pro®.
# (§5) Treatment requirements were calculated based upon the rates being tested, the concentration of active ingredient or acid equivalent in the formulation, and a 12 mL application volume at a rate of 187 L/ha.
# (§6) For treatments comprised of formulated compounds, measured amounts of compounds were placed individually in 25 mL glass vials and diluted in a volume of 1.25% (v/v) Agri-Dex® crop oil concentrate (COC) to obtain 12× stock solutions. […] Application solutions were prepared by adding an appropriate amount of each stock solution (e.g., 1 mL) and diluted to the appropriate final concentrations with the addition of 10 mL of an aqueous mixture of 1.25% (v/v) COC so that the final spray solutions contained 1.25% (v/v) COC.
# (§7) All stock solutions and applications solutions were visually inspected for compound compatibility prior to application. Spray solutions were applied to the soil with an overhead Mandel track sprayer equipped with a 8002E nozzles calibrated to deliver 187 L/ha over an application area of 0.503 m^2 at a spray height of 18 inches (46 cm) above average pot height. Control pots were sprayed in the same manner with the solvent blank.
# (§8) The treated and control pots were placed in a greenhouse and top watered as needed. When required to ensure good germination and healthy plants, a fungicide treatment and/or other chemical or physical treatment was applied. […] After approximately 4 weeks, the condition of the test plants as compared with that of the untreated plants was determined visually and scored on a scale of 0 to 100 percent where 0 corresponds to no injury or growth inhibition and 100 corresponds to complete kill. […]
# IPOHE = format: in vivo, Ipomoea hederacea (L.) Jacq.; conditions: 35 gai/ha
# Excerpt: as §1, §2, §3, §4, §5, §6, §7, §8
# SETVI = format: in vivo, Setaria viridis (L.) Beauv.
# Excerpt: as §1, §2, §3, §4, §5, §6, §7, §8
structure (smiles),measurement,setting,value
"CS(=O)(=O)c1cc(C(F)(F)F)ccc1C(=O)c1cnoc1C1CC1 [Isoxaflutole, (5-cyclopropyl-4-isoxazolyl)[2-(methylsulfonyl)-4-(trifluoromethyl)phenyl]methanone, reference compound]",Visual Weed Control (%) - 32 DAA XANST Obs,XANST,75%
same,Visual Weed Control (%) - 32 DAA IPOHE Obs,IPOHE,43%
same,Visual Weed Control (%) - 32 DAA SETVI Obs,SETVI; 35 gai/ha,50%
same,Visual Weed Control (%) - 32 DAA SETVI Obs,SETVI; 70 gai/ha,93%
